Key:
Assay type in all cases: in vivo
db/db mice = assay: Blood glucose and leptin in mouse model of type II diabetes (Example 2); details: single administration 0.04 g/kg per day by gavage, two weeks
Excerpt: Effects of a Limonoid Compound, Metformin or a Combination Thereof on Blood Glucose and Leptin in a Mouse Model of Type II Diabetes In the present example, db/db mice (line name BKS.Cg-Dock7^m+/+ Lepr^db/Nju) were used to perform hypoglycemic efficacy evaluation test of animals (blood glucose level and leptin). […] Conditions for experimental feeding: as type II diabetes model mice, 6-week-old SPF-grade db/db mice were purchased from the Nanjing Model Biology Institute, and subjected to experimental feeding after 7 days of preliminary feeding. […] The experimental feed was mouse growth-stable feed (GB […]), and the daily feeding and management of the animals were under the responsibility of the animal security department, which provided the animals with sufficient padding and fresh drinking water daily. Experimental grouping: male db/db mice (20±2 g) were selected, and 18 male mice in each group were tested. […] Gavage doses: obacunone at a dose of 0.04 g/kg was gavaged per day for the obacunone group, isoobacunoic acid at a dose of 0.04 g/kg was gavaged per day for the isoobacunoic acid group, obacunone 17-β-D-glucopynoside at a dose of 0.04 g/kg was gavaged per day for the obacunone 17-β-D-glucopynoside group, metformin at a dose of 0.04 g/kg was gavaged per day for the metformin group, obacunone at a dose of 0.02 g/kg and metformin at a dose of 0.02 g/kg were simultaneously gavaged per day for the obacunone/metformin combination group, isoobacunoic acid at a dose of 0.02 g/kg and metformin at a dose of 0.02 g/kg were simultaneously gavaged per day for the isoobacunoic acid/metformin combination group, obacunone 17-β-D-glucopynoside at a dose of 0.02 g/kg and metformin at a dose of 0.02 g/kg were simultaneously gavaged per day for the obacunone 17-β-D-glucopynoside/metformin combination group, the gavage volume was 10 mL/kg, and the normal group and the model group were administrated with 10 mL/kg of distilled water. […] The data were expressed as mean and standard deviation. The data before and after were analyzed by t-test, and P<0.05 was considered statistically significant.

ICR mice = assay: Body weight, triglycerides and total cholesterol in obesity mouse model (Example 6); details: high-fat feed ICR mice, single administration 0.1 g/kg per day by gavage, two weeks
Excerpt: Effects of a Limonoid Compound, Metformin or a Combination Thereof on Body Weight, Triglycerides, and Total Cholesterol in an Obesity Mouse Model
In this example, ICR mice were used to complete the experiment for evaluation of lipid lowering and weight loss in animals (body weight, serum cholesterol, and serum triglycerides).
In this example, the limonoid compound was nomilin, and a metformin single administration group, nomilin single administration group, and metformin/nomilin combination administration groups (dose A and B groups) were set, respectively.
Conditions of experimental feeding: ICR mice, purchased from the Animal Center of Zhejiang Academy of Medical Sciences, half male and half female, body weight (20±2 g), fed with basic feed provided by the Animal Center of Zhejiang Medical Academy. It should be noted that the conditions for raising the mice were as follows: the temperature was 23±1° C., the humidity was 55±10%, the lights were turned on between 7 am and 7 pm (the lights were turned off at other time), and the mice were allowed to access to water and feed freely. The daily feeding and management of the animals were under the responsibility of the animal security department, which provided the animals with sufficient padding and fresh drinking water daily.
The ICR mice were randomly divided into the normal group and the high-fat feed group, according to body weight. The normal group was fed with ordinary feed from the beginning to the end of the experiment.
Gavage dose: nomilin at a dose of 0.1 g/kg was gavaged per day for the nomilin group, metformin at a dose of 0.1 g/kg was gavaged per day for the metformin group, nomilin at a dose of 0.05 g/kg and metformin at a dose of 0.05 g/kg were simultaneously gavaged per day for the combination dose group A, nomilin at a dose of 0.1 g/kg and metformin at a dose of 0.1 g/kg were simultaneously gavaged per day for the combination dose group B, the gavage volume was 10 mL/kg, and the normal group and the model group were administrated with 10 mL/kg of distilled water. Two weeks later, the mice were weighed, blood sampled from orbital cavity, measured to determine serum total cholesterol and triglyceride levels, and the average values of each group were obtained. SPSS 16.0 software was used for statistical analysis. The data were expressed as mean and standard deviation. The data before and after were analyzed by t-test, and P<0.05 was considered statistically significant.

STZ mice = assay: Blood glucose in mouse pancreatic islet β-cell injury model (Example 3); details: STZ ICR mice; single administration 0.1 g/kg per day by gavage, two weeks; 1 h after last administration
Excerpt: Effects of a Limonoid Compound, Metformin or a Combination Thereof on Blood Glucose in a Mouse Pancreatic Islet β-Cell Injury Model In this example, a mouse pancreatic islet β-cell injury model was established by modeling ICR mice with streptozotocin (STZ) (referred to the prior art literature: Li Nan et al., Protective effect of pine pollen on kidney damage in diabetic nephropathy mice, Science and Technology Review, 2014, 32 (4/5): 95-99), and used to complete the evaluation of hypoglycemic effect in animals (this model could simulate pancreatic islet β-cell damage state of type I and type II diabetics). […] Conditions of experimental feeding: ICR mice (20±2 g), aged 6 weeks, purchased from Zhejiang Academy of Medical Sciences, and subjected to experimental feeding after 7 days of preliminary feeding. […] The experimental feed was mouse growth-stable feed (GB […]), and the daily feeding and management of the animals were under the responsibility of the animal security department, which provided the animals with sufficient padding and fresh drinking water daily. Experimental grouping: 15 male mice were randomly selected as the normal control group. […] Gavage doses: the gavage dose was 0.1 g/kg per day for the […] group, the gavage dose was 0.1 g/kg per day for the […] group, the gavage dose was 0.1 g/kg per day for the […]-glucopyranoside group, the gavage dose of metformin was 0.1 g/kg per day for the metformin group, […] dose of 0.05 g/kg and metformin at a dose of 0.05 g/kg were simultaneously gavaged per day for the […]/metformin combination group, […] dose of 0.05 g/kg and metformin at a dose of 0.05 g/kg were simultaneously gavaged per day for the […]/metformin combination group, […]-glucopyranoside at a dose of 0.05 g/kg and metformin at a dose of 0.05 g/kg were simultaneously gavaged per day for the […]-glucopyranoside/metformin combination group, the gavage volume was 10 mL/kg, and the normal group and the model group were administrated with 10 mL/kg of distilled water. […] SPSS 16.0 software was used for statistical analysis. The data were expressed as mean and standard deviation. The data before and after were analyzed by t-test, and P<0.05 was considered statistically significant.

Question: For `CN(C)C(=N)NC(=N)N` [Metformin, N,N-dimethylimidodicarbonimidic diamide, reference compound], which Leptin (db/db mice; serum, Elisa) is on record?
Answer: The Leptin was 34.49 ± 3.38 pg/mL.

Question: And the Blood glucose value (db/db mice; 1 h after last administration)?
Answer: The Blood glucose value was 15.5 ± 3.6 mmol/L.

Question: What about the “Body weight gaining rate” value (ICR mice) of the same compound?
Answer: The value was 11.56%.

Question: What about the Total cholesterol (ICR mice; serum) of the same compound?
Answer: Its Total cholesterol is 3.35 ± 0.07 mmol/L.

Question: What about the Triglycerides (ICR mice; serum) of the same compound?
Answer: Its Triglycerides is 1.17 ± 0.30 mmol/L.

Question: What about the Blood glucose value (STZ mice) of the same compound?
Answer: The Blood glucose value was 17.2 ± 3.9 mmol/L.

Reference: patent US11679097B2, “Combination product containing limonoid compound and biguanide compound” (ZHEJIANG YANGSHENGTANG INSTITUTE OF NATURAL MEDICATION CO., …, priority 2017, dated 2023)
